Assay results reported in patent US20230203029A1 (priority 2020, published 2023).
Where two headings read alike, the source gives them in different places.

Key:
[1] = biological target: T1, recombinant human MERTK expressed in live cells (HEK 293, MERTK-Nanoluc fusion vector) (Homo sapiens, UniProt Q12866); test: Assay 2 MERTK cellular target engagement (NanoBRET TE) assay; format: cell-based
T1 construct: host or cells: HEK 293
T1 sequence (Q12866 21-999): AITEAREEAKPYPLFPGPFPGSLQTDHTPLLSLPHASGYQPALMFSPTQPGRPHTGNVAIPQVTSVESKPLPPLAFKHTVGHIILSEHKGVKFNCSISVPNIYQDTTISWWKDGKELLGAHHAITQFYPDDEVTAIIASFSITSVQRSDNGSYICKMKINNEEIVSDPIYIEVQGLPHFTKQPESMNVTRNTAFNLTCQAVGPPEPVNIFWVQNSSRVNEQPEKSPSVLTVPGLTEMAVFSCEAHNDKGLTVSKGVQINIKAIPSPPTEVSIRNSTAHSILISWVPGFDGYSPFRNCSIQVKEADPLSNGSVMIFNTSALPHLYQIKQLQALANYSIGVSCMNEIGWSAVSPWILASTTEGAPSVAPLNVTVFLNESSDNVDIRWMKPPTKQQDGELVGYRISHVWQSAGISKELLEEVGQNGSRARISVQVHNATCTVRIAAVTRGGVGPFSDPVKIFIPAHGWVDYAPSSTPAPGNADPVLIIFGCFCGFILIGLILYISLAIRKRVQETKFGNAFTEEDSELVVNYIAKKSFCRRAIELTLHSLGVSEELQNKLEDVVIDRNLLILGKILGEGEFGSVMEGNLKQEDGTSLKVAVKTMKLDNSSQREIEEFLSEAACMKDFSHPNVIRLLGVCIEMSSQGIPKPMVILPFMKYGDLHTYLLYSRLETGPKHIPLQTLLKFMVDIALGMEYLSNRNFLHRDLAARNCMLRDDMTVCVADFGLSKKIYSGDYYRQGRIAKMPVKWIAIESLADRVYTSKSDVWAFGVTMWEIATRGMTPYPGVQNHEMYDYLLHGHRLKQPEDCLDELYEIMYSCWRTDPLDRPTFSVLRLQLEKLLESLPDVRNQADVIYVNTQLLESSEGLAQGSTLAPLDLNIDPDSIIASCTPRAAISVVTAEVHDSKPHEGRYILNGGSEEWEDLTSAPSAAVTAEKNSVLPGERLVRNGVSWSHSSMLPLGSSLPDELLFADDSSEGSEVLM

[2] = biological target: T2, Ba/F3 Pro B-cell line expressing BCR-human AXL kinase domain fusion protein (Homo sapiens, UniProt P30530); test: Assay 5 Ba/F3 cell survival assay, BCR-Axl; format: cell-based; conditions: read-out: BCR-Axl Ba/F3 IC50, 48 h, CellTiter-Glo
T2 construct: P11274 (Breakpoint cluster region protein)
T2 sequence (P30530 536-807 limits assumed): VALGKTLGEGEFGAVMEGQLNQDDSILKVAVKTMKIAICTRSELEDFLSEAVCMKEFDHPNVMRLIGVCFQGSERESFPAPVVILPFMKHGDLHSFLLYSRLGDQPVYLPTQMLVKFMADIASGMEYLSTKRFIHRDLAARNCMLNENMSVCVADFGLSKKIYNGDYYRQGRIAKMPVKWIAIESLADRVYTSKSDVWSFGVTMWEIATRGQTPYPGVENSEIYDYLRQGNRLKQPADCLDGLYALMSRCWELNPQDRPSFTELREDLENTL
How it was run: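 Ba/F3 cells dependent on BCR-AXL or TEL-MERTK fusion kinase (IL3-free; IL3 only for control lines) treated with compound 48 h at 37 °C, 0.25% DMSO. Viability by CellTiter-Glo luminescence; IC50 for half-maximal inhibition of survival from 4-parameter variable-slope fit.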

[3] = biological target: T3, human MERTK cytoplasmic domain (Homo sapiens, UniProt Q12866); test: biochemical
T3 construct: human MERTK cytoplasmic domain (Carna Biosciences 08-108); purchased Carna Biosciences 08-108
Procedure: Assay 1a—MERTK HTRF KinEASE-TK Assay
The enzymatic reaction was carried out for 30 min at room temperature. 10 μL TK Antibody-Cryptate/Streptavidin-XL665 (Cisbio 610SAXLG) was then added for 60 min, including EDTA containing detection buffer (Cisbio 62SDBRDF) to stop the reaction.

[4] = HEK 293 cells, tracer K9, 2 h at 37° C., read-out: Assay 2 Cell TE MER IC50
[5] = 30 uM ATP, read-out: Assay 1a Mer IC50 30 uM ATP

Row | SMILES | IC50 [1, 4] | IC50 [3, 5] | IC50 [2] | IC50 [1] | IC50 [3]
1 | CN1CCC(NC(=O)c2cc3c(Nc4ccc(NC(=O)c5cccn(-c6ccccc6)c5=O)cc4)ccnc3cn2)CC1 [Example 3, N-(1-methyl-4-piperidyl)-4-[4-[(2-oxo-1-phenyl-pyridine-3-carbonyl)amino]anilino]-1,7-naphthyridine-6-carboxamide] | 26.3 nM | 55 nM | 45 nM | – | –
2 | O=C(Nc1ccc(Oc2ccnc3cnc(N4CCNCC4)cc23)cc1)c1cccn(-c2ccc(F)cc2)c1=O [Example 12.2, 1-(4-fluorophenyl)-2-oxo-N-[4-[(6-piperazin-1-yl-1,7-naphthyridin-4-yl)oxy]phenyl]pyridine-3-carboxamide] | 18.3 nM | 20 nM | 48 nM | – | –
3 | Cn1cc(C(=O)Nc2ccc(Oc3ccnc4cnc(N5CCNCC5)cc34)cc2)c(=O)c(-c2ccc(F)cc2)c1 [Example 13.1, 5-(4-fluorophenyl)-1-methyl-4-oxo-N-[4-[(6-piperazin-1-yl-1,7-naphthyridin-4-yl)oxy]phenyl]pyridine-3-carboxamide] | 12.4 nM | 4 nM | 22 nM | – | –
4 | CN1CCC(NC(=O)c2cc3c(Oc4ccc(NC(=O)c5cn(C6CC6)c(=O)n(-c6ccc(F)cc6)c5=O)cc4)ccnc3cn2)CC1 [Example 15, 4-[4-[[1-Cyclopropyl-3-(4-fluorophenyl)-2,4-dioxo-pyrimidine-5-carbonyl]amino]phenoxy]-N-(1-methyl-4-piperidyl)-1,7-naphthyridine-6-carboxamide] | 133 nM | 22 nM | 14 nM | – | –
5 | O=C(Nc1ccc(Oc2ccnc3cnc(N4CCN(C5COC5)CC4)cc23)cn1)c1ccnn(-c2ccc(F)cc2)c1=O [Example 20, 2-(4-fluorophenyl)-N-[5-[[6-[4-(oxetan-3-yl)piperazin-1-yl]-1,7-naphthyridin-4-yl]oxy]-2-pyridyl]-3-oxo-pyridazine-4-carboxamide] | – | 3 nM | 16 nM | – | –
6 | Cc1cc(NC(=O)c2cccn(-c3ccccc3)c2=O)ccc1Oc1ccnc2cnc(N3CCNCC3)cc12 [Example 30, N-[3-methyl-4-[(6-piperazin-1-yl-1,7-naphthyridin-4-yl)oxy]phenyl]-2-oxo-1-phenyl-pyridine-3-carboxamide] | – | – | 470 nM | 244 nM | 13 nM
7 | O=C(Nc1ccc(Oc2ccnc3cnc(N4CCNCC4)cc23)cc1)c1cn(C2CC2)c(=O)n(-c2ccc(F)cc2)c1=O [Example 36, 1-cyclopropyl-3-(4-fluorophenyl)-2,4-dioxo-N-[4-[(6-piperazin-1-yl-1,7-naphthyridin-4-yl)oxy]phenyl]pyrimidine-5-carboxamide] | 68.1 nM | 20 nM | 34 nM | – | –
8 | CC(C)n1cc(C(=O)Nc2ccc(Oc3ccnc4cnc(C(=O)NC5CCN(C)CC5)cc34)cc2)c(=O)c(-c2ccc(F)cc2)c1 [Example 37.1, 4-[4-[[5-(4-fluorophenyl)-1-isopropyl-4-oxo-pyridine-3-carbonyl]amino]phenoxy]-N-(1-methyl-4-piperidyl)-1,7-naphthyridine-6-carboxamide] | 8.3 nM | 2 nM | 2 nM | – | –

The remaining compounds from weak to strong by IC50 [3, 5], led by results:

Row | IC50 [1, 4] | IC50 [3, 5] | SMILES | IC50 [2] | IC50 [1] | IC50 [3]
9 | 244 nM | 56 nM | CC(C)n1cc(C(=O)Nc2ccc(Oc3ccnc4cnc(N5CCNCC5)cc34)cc2)c(=O)n(-c2ccccn2)c1=O [Example 12.3, 1-isopropyl-2,4-dioxo-N-[4-[(6-piperazin-1-yl-1,7-naphthyridin-4-yl)oxy]phenyl]-3-(2-pyridyl)pyrimidine-5-carboxamide] | 64 nM | – | –
10 | 30.5 nM | 15 nM | CC(C)n1cc(C(=O)Nc2ccc(Oc3ccnc4cnc(C(=O)NC5CCN(C)CC5)cc34)cn2)c(=O)n(-c2ccc(F)cc2)c1=O [Example 27.5, 4-[[6-[[3-(4-fluorophenyl)-1-isopropyl-2,4-dioxo-pyrimidine-5-carbonyl]amino]-3-pyridyl]oxy]-N-(1-methyl-4-piperidyl)-1,7-naphthyridine-6-carboxamide] | 2 nM | – | –
11 | 75.9 nM | 14 nM | C[C@H](CO)n1cc(C(=O)Nc2ccc(Oc3ccnc4cnc(C(=O)NC5CCN(C)CC5)cc34)cc2)c(=O)n(-c2ccc(F)cc2)c1=O [Example 14, 4-[4-[[3-(4-Fluorophenyl)-2,4-dioxo-1-[(1R)-2-hydroxy-1-methyl-ethyl]pyrimidine-5-carbonyl]amino]phenoxy]-N-(1-methyl-4-piperidyl)-1,7-naphthyridine-6-carboxamide] | 7 nM | – | –
12 | 45.4 nM | 8 nM | CC(C)n1cc(C(=O)Nc2ccc(Oc3ccnc4cnc(N5CCNCC5)cc34)cc2)c(=O)n(-c2ccc(F)cn2)c1=O [Example 12.4, 3-(5-fluoro-2-pyridyl)-1-isopropyl-2,4-dioxo-N-[4-[(6-piperazin-1-yl-1,7-naphthyridin-4-yl)oxy]phenyl]pyrimidine-5-carboxamide] | 12 nM | – | –
13 | 74.3 nM | 8 nM | CN1CCC(NC(=O)c2cc3c(Oc4ccc(NC(=O)c5cccn(-c6ccccc6)c5=O)cc4F)ccnc3cn2)CC1 [Example 33, 4-[2-fluoro-4-[(2-oxo-1-phenyl-pyridine-3-carbonyl)amino]phenoxy]-N-(1-methyl-4-piperidyl)-1,7-naphthyridine-6-carboxamide] | 30 nM | – | –
14 | 41.4 nM | 3 nM | CN1CCC(NC(=O)c2cc3c(Oc4ccc(NC(=O)c5cn(C)cc(-c6ccc(F)cc6)c5=O)cc4)ccnc3cn2)CC1 [Example 37, 4-[4-[[5-(4-fluorophenyl)-1-methyl-4-oxo-pyridine-3-carbonyl]amino]phenoxy]-N-(1-methyl-4-piperidyl)-1,7-naphthyridine-6-carboxamide] | 17 nM | – | –
15 | 6.7 nM | 1 nM | CC(C)n1cc(C(=O)Nc2ccc(Oc3ccnc4cnc(N5CCNCC5)cc34)cc2)c(=O)c(-c2ccc(F)cc2)c1 [Example 13, 5-(4-Fluorophenyl)-1-isopropyl-4-oxo-N-[4-[(6-piperazin-1-yl-1,7-naphthyridin-4-yl)oxy]phenyl]pyridine-3-carboxamide] | 13 nM | – | –
